What all share (type): functional, cell-based
One assay has as its system A2780. Nature of the assay: Cytotoxicity against human A2780 cells after 5 days by MTT assay. The settings on record: A2780, 120 h.
A further assay deals with HCT-8. Nature of the assay: Cytotoxicity against human HCT8 cells after 5 days by MTT assay. To be noted: HCT-8, 120 h. (In general: Formazan colour is commonly taken as a measure of viable cells.)
For the next assay, the system named is KB. Nature of the assay: Cytotoxicity against human KB cells after 5 days by MTT assay. The settings on record: 120 h.

The IC50 is the concentration that gives 50% inhibition. A high value points to weaker potency in that assay.

Turning to `O=C1C=CC[C@H]([C@H](O)[C@@H](c2ccccc2)c2c(O)cc3c(c2O)C(=O)C[C@@H](c2ccccc2)O3)O1` [GONIOLACTONE B], the IC50 with A2780 was 7.4 µM; in the assay on HCT-8, 4.43 µM; with KB it was 7.23 µM.

The record behind these values is ChEMBL document CHEMBL1150586, “Goniolactones A-F, six new styrylpyrone derivatives from the roots of Goniothalamus cheliensis” (J Nat Prod, 2002).
